Test results from US9012439B2, “Use of electrophilic compounds for inducing platelet production or maintaining platelet function” (University of Rochester, priority 2007, dated 2015).

Experiments:
[1] = system: Meg-01 cells; experiment: Platelet production from Meg-01 cells (flow cytometry); assay type: cell-based, human; settings: Meg-01 cells, 10 μM, 24 h
Experimental: Meg-01 and M07e cells were purchased from the American Type Culture Collection (Rockville, Md.) and Dami cells were a generous gift from Dr. Patricia J. Simpson-Haidaris (University of Rochester). All cells were cultured in RPMI-1640 tissue culture medium (Invitrogen) supplemented with 5% fetal bovine serum (FBS; Invitrogen), 10 mM HEPES (N-2-hydroxyethylpiperazine-N′-2-ethanesulfonic acid; Sigma), 2 mM L-glutamine (Invitrogen), 4.5 g/L glucose (Invitrogen), and 50 μg/mL gentamicin (Invitrogen). M07e cells were also supplemented with 100 ng/mL of granulocyte monocyte-colony stimulating factor (GM-CSF, R&D Systems). All treatments were performed in normal growth media. Dimethyl sulfoxide (DMSO) was used as a vehicle (control) in the experiments described below.
Platelets were isolated from megakaryocytes by centrifugation at 150 xg for 10 min. Supernatants underwent sequential centrifugation (500 xg for 10 min and 1000×g for 10 min). The remaining platelet pellet was fixed then permeabilized with a CD61 or CD41 antibody. 7-AAD (BD Pharmingen) was added for 10 min before analyzing the cells by flow cytometry. Platelets were identified using three well-described parameters (Patel et al., “The Biogenesis of Platelets from Megakaryocyte Proplatelets,” J Clin Invest 115:3348-3354 (2005); Breton-Gorius et al., “Expression of Platelet Proteins During the In Vitro and In Vivo Differentiation of Megakaryocytes and Morphological Aspects of Their Maturation,” Semin Hematol 23:43-67 (1986); Ogura et al., “Establishment of a Novel Human Megakaryoblastic Leukemia Cell Line, MEG-01, With Positive Philadelphia Chromosome,” Blood 66:1384-1392 (1985) and Franks et al., “A Fluorescence Microscopy Method for Quantifying Levels of Prostaglandin Endoperoxide H Synthase-1 and CD-41 in MEG-01 Cells,” Biol Proced Online 3:54-63 (2001), each of which is hereby incorporated by reference in its entirety), size (using normal human platelets as a control), presence of CD61 or CD41 and lack of DNA as determined by the absence of 7-AAD staining Ten thousand platelet events were collected and platelets were quantified by rate (platelet events/second) (Chung et al., “Platelet Activation in Acute, Decompensated Congestive Heart Failure,” Thromb Res 120:709-713 (2007), which is hereby incorporated by reference in its entirety.
A 19 by target sequence was selected to knock down PPARγ. PPARγ was cloned downstream of the RNA polymerase III U6 promoter and subcloned into a FG12 lentiviral vector which expresses green fluorescent protein (GFP) under the Ubiquitin C promoter. HEK 293 cells expressing this siRNA PPARγ had reduced PPARγ protein levels. To make the lentivirus, HEK 293 cells were co-transfected with 3 plasmids: the envelope vector (CMV-VSVG), the transfer vector (FG12-shRNAPPAR), and the packaging construct (pCMVΔ89.2 (gag/pol proteins)). Viral supernatants were collected every 8 h for 2 days and concentrated by ultracentrifugation at 50,000×g for 2 h at 4° C. using a Beckman SW 28 rotor. Viral titers were determined by infection of HeLa cells with serial dilutions of the viral stocks. Meg-01 cells were infected at a multiplicity of infection (MOI) of 20. After 48 h, approximately 56% of the PPARγ siRNA cells were transduced as determined by flow cytometry. The GFP positive (+) cells were then sorted by FACS and grown in RPMI with 5% FBS.

[2] = biological target: T1, PPARγ (Homo sapiens, UniProt P37231); experiment: PPARγ gene reporter analysis (PPRE-luciferase) in Meg-01 cells; assay type: cell-based; settings: 10 μM, 24 h after ligand treatment
T1 construct: Meg-01 cells were plated at a density of […] cells per well in a E-well plate and transfected; endogenous in cells; host or cells: Meg-01 cells
T1 sequence (P37231 1-505): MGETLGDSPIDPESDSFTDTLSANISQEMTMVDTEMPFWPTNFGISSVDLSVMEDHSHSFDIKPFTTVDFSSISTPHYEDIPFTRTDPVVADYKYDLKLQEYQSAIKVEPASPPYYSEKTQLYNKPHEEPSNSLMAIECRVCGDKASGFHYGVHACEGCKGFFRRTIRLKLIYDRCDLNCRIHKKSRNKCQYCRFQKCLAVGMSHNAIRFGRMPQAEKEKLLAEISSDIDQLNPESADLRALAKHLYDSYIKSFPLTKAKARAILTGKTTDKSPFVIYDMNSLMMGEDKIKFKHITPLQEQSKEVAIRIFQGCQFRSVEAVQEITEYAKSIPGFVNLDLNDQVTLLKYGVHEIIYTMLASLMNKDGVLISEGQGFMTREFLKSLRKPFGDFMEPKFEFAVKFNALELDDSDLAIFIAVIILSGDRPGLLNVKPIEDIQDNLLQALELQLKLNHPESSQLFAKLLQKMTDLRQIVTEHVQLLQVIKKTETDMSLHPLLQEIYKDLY
Experimental: Meg-01 cells were plated at a density of […] cells per well in a […] and transfected, using lipofectamine LTX (Invitrogen), with a PPRE (Peroxisome Proliferator Response Element)-luciferase reporter plasmid containing three copies of the ACO-PPRE (a gift from Dr. B. Seed, Massachusetts General Hospital, Boston, Mass.). […] Transfection efficiency was determined by transfecting the cells with green fluorescent protein (GFP) plasmid and determining the percentage of cells that were GFP+ by flow cytometry. […] Luciferase activity was assessed 24 h after ligand treatment using the Promega Luciferase Assay System, and relative light units (RLU) were determined using a Lumicount Microplate Luminometer (Packard Instrument Co., Meriden, Conn.).

[3] = system: Meg-01 cells; experiment: Reactive oxygen species production in Meg-01 cells (carboxy-H2DCFDA, MitoSOX Red); assay type: cell-based, human; settings: Meg-01 cells, 1 h and 6 h; for change in percentage of cells generating mitochondrial superoxide (MitoSOX Red): 10 μM
Experimental: Ten μM carboxy-H2DCFDA was added to cells for 20 min at RT. The cells were washed and immediately analyzed by flow cytometry. Five μM of MitoSOX Red dye in HBSS containing Mg^2+ and Ca^2+ was added to the cells for 15 min at 37° C. The cells were washed in HBSS and analyzed by flow cytometry.

[4] = system: C57BL/6 mice; experiment: Circulating platelet number in unirradiated mice; assay type: in vivo, mouse (C57BL/6); settings: unirradiated C57BL/6 mice, 1 mg/kg IV four consecutive days, d 4
Experimental: (§1) Seven or 8-week-old male C57BL/6 mice (Jackson Laboratories) were either exposed to 5 Gy cesium (Cs^137) total body irradiation (TBI) using a Model 8114 6000 Curie Shepherd Cs^137 irradiator (approximately 3200 Curie sealed Cs^137 source) with a dose rate of […] or left unexposed. Mice (n=4) received intravenous injections of vehicle (8% DMSO) or 15d-PGJ2 (1 mg/kg) or CDDO-Me (250 μg/kg) for 4 consecutive days from day 1 (days 1, 2, 3 and 4 post-irradiation). Blood was obtained from the aorta or the orbital sinus. Platelets were counted prior to radiation exposure and after radiation exposure on day 10, day 22, and day 31 in Example 7, or days 4, 10, 16, and 21 in Example 9 using the Heska® CBC-Diff™ Veterinary Analyzer (Fort Collins, Colo.). Data are expressed as average platelet counts from two separate experiments. For the unirradiated mice, platelets were counted on day 4, day 10, and day 15 in Example 7 or on the same days in Example 9.

[5] = system: primary mouse megakaryocytes; experiment: DNA content analysis of primary mouse megakaryocytes; assay type: cell-based; settings: by 24 h
Experimental: Bone marrow was isolated from the femora of male C57BL/6 mice (Jackson Laboratories, Bar Harbor, Me.) and plated at a concentration of 1×10^6 cells per well in 12-well plates in IMDM (Iscove's Modified Dulbecco's Media, Invitrogen) with 20% BIT 9500 (BSA, insulin, transferrin) and supplemented with 100 ng/mL of rhTPO. Cells were cultured for 5 days, following which 15d-PGJ2 (10 μM) was added to the culture medium for 24 h. On the sixth day, cells were examined by phase-contrast microscopy using an inverted microscope (Olympus IX81) and images were captured using SPOT RT software (New Hyde Park, N.Y.). Megakaryocytes were identified by preincubating with anti-mouse CD16/32 (FcγR-blocking antibody) and then incubating with PE-conjugated hamster anti-mouse CD41 antibody.
Cells were fixed in 95% ethanol, treated with RNAse (Sigma) followed by 20 μg/mL propidium iodide (Sigma) to stain DNA, and analyzed by flow cytometry.

[6] = system: mouse megakaryocyte progenitors (Meg-CFC); experiment: Megakaryocyte progenitor (Meg-CFC) assay on bone marrow of treated mice; assay type: in vivo
Experimental: Primary mouse bone marrow cells were suspended in IMDM at a concentration of 8×10^6 cells/mL. Two-hundred thousand cells were plated in IMDM supplemented with 20% BIT9500, 0.2% 2-mercaptoethanol, 2% Glutamax, and 20% Cellgro-H20 (Mediatech, Herndon, Va.) and cultured with rhTPO (50 ng/mL), IL-3 (10 ng/mL) (Preprotech, Rocky Hill, N.J.), IL-6 (20 ng/mL) (Preprotech), IL-11 (Preprotech) (50 ng/mL), and collagen at 37° for 7 days (Tober et al., “The Megakaryocyte Lineage Originates from Hemangioblast Precursors and is an Integral Component Both of Primitive and of Definitive Hematopoiesis,” Blood 109:1433-1441 (2007), which is hereby incorporated by reference in its entirety). Collagen gels were dehydrated, fixed, and labeled with GPIbβ and GPV, modified by ABC (Vector Labs, Burlingame, Calif.), and developed in Vector Red (Vector Labs). Meg-CFC were defined by their ability to generate colonies containing at least three megakaryocytes.

[7] = system: C57BL/6 mice; experiment: Irradiation-induced thrombocytopenia (5 Gy total body irradiation); assay type: in vivo, mouse (C57BL/6); settings: 5 Gy
Experimental: as §1

Compound	platelet production [1]	PPARγ activation (PPRE-luciferase activity) [2]	change in percentage of cells generating mitochondrial superoxide (MitoSOX Red) [3]	change in percentage of cells generating ROS (carboxy-H2DCFDA) [3]	levels of circulating platelets on d 4 [4]	primary mouse megakaryocyte ploidy [5]	megakaryocyte number [6]	percentage of megakaryocytes producing proplatelets ([6]; mice injected 250 μg/kg for three consecutive days, 7 days of culture)	Meg-CFC colony formation compared to vehicle control ([6]; normal mice, 250 μg/kg for three consecutive days, bone marrow plated day 4)	platelet counts ([7]; 250 μg/kg days 1-4, day 4)	platelet counts ([7]; 250 μg/kg days 1-4, days 10 and 16)
CCCCC/C=C\C=C1\C(=O)CC[C@@H]1C/C=C\CCCC(=O)O [9,10 dihydro-15d-PGJ2, reference compound]	failed to enhance platelet production	activated PPARγ	failed to increase the percentage of cells generating mitochondrial superoxide	failed to increase the percentage of cells generating ROS	–	–	–	–	–	–	–
CCCCC/C=C\C=C1\C(=O)C[C@@H](O)[C@H]1C/C=C\CCCC(=O)O [15d-PGD2, 15-deoxy-Δ^12,14-PG22, reference compound]	failed to enhance platelet production	–	failed to increase the percentage of cells generating mitochondrial superoxide	failed to increase the percentage of cells generating ROS	significant increase in the levels of circulating platelets	–	–	–	–	–	–
COC(=O)[C@]12CCC(C)(C)C[C@H]1[C@H]1C(=O)C=C3[C@@]4(C)C=C(C#N)C(=O)C(C)(C)[C@@H]4CC[C@@]3(C)[C@]1(C)CC2 [CDDO-Me, methyl-2-cyano-3,12-dioxooleana-1,9-dien-28-oate]	–	–	–	–	–	enhanced primary mouse megakaryocyte ploidy	failed to increase megakaryocyte number	significantly augmented the percentage of megakaryocytes producing proplatelets	significantly enhanced Meg-CFC colony formation	increased platelet counts	significantly improved platelet counts
